The values below are quoted from earlier work in patent US11318156B2, “Solid injectable veterinary implants comprising monocyclic lactone” (CEVA SANTE ANIMALE, priority 2017, dated 2022).

Like-named read-outs stand apart in the source and are kept apart here.

For data set [1] the following is noted: 14-week oral study.
Test in data set [2]: not given
The source holds these as a separate data set.

Take ivermectin: the “share of collie dogs highly sensitive to ivermectin” value was “approximately 30%”. Besides, the “No Observable Effect Level (NOEL)” value in data set [1] (beagle dogs) is 0.5 mg/kg bw. Besides, the observed effects result in data set [1] (beagle dogs, 1.0 and 2.0 mg/kg bw) was “mydriasis and slight weight loss”. In addition, the observed effects result in data set [1] (four dogs in the 2.0 mg/kg bw group, killed prior to end of study) was “tremors, ataxia, anorexia and dehydration”. For the same substance, the “average increase in plasma levels” value in data set [2] (four-fold increase in the dose (0.5 to 2.0 mg/kg bw oral)) is given as “eight-fold”. Moreover, the “time to steady-state of ivermectin (B1a) in plasma” value in data set [2] (oral 0.5 and 2.0 mg/kg bw, 36-day study) was “about three weeks”.
